pEC50: −log10 of the molar value.
Assay: Agonist activity at VDR in human HL60 cells assessed as induction of cell differentiation by measuring increase in NBT positive cells by Wright staining based microscopic method

SMILES | pEC50
CCn1c(C(=O)NCCCO)ccc1C(CC)(CC)c1ccc(C#CC(O)(CC)CC)c(C)c1 | 6.86
CCn1cc(C(CC)(CC)c2ccc(C#CC(O)(CC)CC)c(C)c2)cc1C(=O)N[C@@H](C)CO | 8.14
CCN(CC)CCNC(=O)c1ccc(C(CC)(CC)c2ccc(C#CC(O)(CC)CC)c(C)c2)n1CC | 8.00
CCN(CC)CCNC(=O)c1cc(C(CC)(CC)c2ccc(C#CC(O)(CC)CC)c(C)c2)cn1CC | 8.15
CCN(CC)CCNC(=O)c1ccc(C(CC)(CC)c2ccc(OCC(O)C(C)(C)C)c(C)c2)n1CC (stereo not drawn) | 8.19
CCn1c(C(=O)NCCC(=O)OC)ccc1C(CC)(CC)c1ccc(C#CC(O)(CC)CC)c(C)c1 | < 7.30
CCN(CC)CCCNC(=O)c1ccc(C(CC)(CC)c2ccc(C#CC(O)(CC)CC)c(C)c2)n1CC | 7.16
CCn1c(C(=O)NCc2ccc(OC)cc2)ccc1C(CC)(CC)c1ccc(C#CC(O)(CC)CC)c(C)c1 | < 7.30
C#CCCOC(=O)c1ccc(C(CC)(CC)c2ccc(C#CC(O)(CC)CC)c(C)c2)n1CC | < 7.30
CCCCC(=O)c1ccc(C(CC)(CC)c2ccc(C#CC(O)(CC)CC)c(C)c2)n1CC | < 7.30
CCn1c(C(=O)NCC(=O)O)ccc1C(CC)(CC)c1ccc(C#CC(O)(CC)CC)c(C)c1 | 8.03
CCn1c(C(=O)N[C@H](C(=O)O)C(C)C)ccc1C(CC)(CC)c1ccc(C#CC(O)(CC)CC)c(C)c1 | 7.74
CCn1c(C(=O)NCCC(=O)O)ccc1C(CC)(CC)c1ccc(C#CC(O)(CC)CC)c(C)c1 | 6.53
CCn1cc(C(CC)(CC)c2ccc(C#CC(O)(CC)CC)c(C)c2)cc1C(=O)NCC(=O)OC | 6.54
CCn1cc(C(CC)(CC)c2ccc(C#CC(O)(CC)CC)c(C)c2)cc1C(=O)NCCN(C)C | 7.72
CCn1cc(C(CC)(CC)c2ccc(C#CC(O)(CC)CC)c(C)c2)cc1C(=O)NCCCN(C)C | 6.85
CCn1cc(C(CC)(CC)c2ccc(C#CC(O)(CC)CC)c(C)c2)cc1C(=O)OCCO | 7.89
CCn1cc(C(CC)(CC)c2ccc(C#CC(O)(CC)CC)c(C)c2)cc1C(=O)NCC(=O)O | 7.27
CCn1cc(C(CC)(CC)c2ccc(C#CC(O)(CC)CC)c(C)c2)cc1C(=O)NCCC(=O)O | < 7.30
CCn1cc(C(CC)(CC)c2ccc(C#CC(O)(CC)CC)c(C)c2)cc1C(=O)N[C@@H](C(=O)O)C(C)C | 7.17
CCn1c(C(=O)On2nnc3ccccc32)ccc1C(CC)(CC)c1ccc(C#CC(O)(CC)CC)c(C)c1 | < 7.30
CCCCC(=O)c1cc(C(CC)(CC)c2ccc(C#CC(O)(CC)CC)c(C)c2)cn1CC | < 7.30
CCn1cc(C(CC)(CC)c2ccc(C#CC(O)(CC)CC)c(C)c2)cc1C(=O)N[C@H](C(=O)O)C(C)C | 7.89
